According to patent publication US20240000950A1, “THERAPEUTIC CURE-PRO COMPOUNDS FOR TARGETED DEGRADATION OF BET DOMAIN PROTEINS, AND METHODS OF MAKING AND USING THEM” (CORNELL UNIVERSITY, priority 2020, published 2024):

Assays:
[1] = tested on: SLC19A1; test: Suppression of the c-MYC downstream target gene SLC19A1, RT-PCR in HeLa cells; type: cell-based, Human; details: 24 h, 10 μM, single agent
Description: The suppression of the expression of the downstream c-MYC target, SLC19A1, was measured by RT-PCR using Power SYBR® Green Cells-to-Ct™ Kit (Life Technologies). Adherent cells were plated on 96 well plates at 5,000 cells per well were treated for 24 h with monomer compounds and compounds capable of reversible interactions (1 nM-100 μM). Cells were subsequently washed in ice-cold PBS processed according to the manufacturer's instructions. Quantitative real-time PCR was performed using a ViiA™ 7 Real-time PCR System (Applied Biosystems, Foster City, CA, USA). GAPDH and ACTB served as internal controls. The primers used were (5′-3′): GAPDH-F: AGCCACATCGCTCAGACAC (SEQ ID NO:9), GAPDH-R: GCCCAATACGACCAAATCC (SEQ ID NO:10), ACTB-F: CCAACCGCGAGAAGATGA (SEQ ID NO:11), ACTB-R: […] (SEQ ID NO:12), SLC19A1-F: […] (SEQ ID NO:13), SLC19A1-R: […] (SEQ ID NO:14).
HeLa cells (1×104) were treated for 24 hours in 96 well plates with the compounds solubilized in DMSO. Compounds were added at 10 μM each and RNA expression measured by the Cells-to Ct method described above (Thermofisher).

[2] = molecular target: T1, BRD4 (Homo sapiens, UniProt O60885); test: CURE-PRO-mediated BRD4 degradation in HeLa cells, Western blot; type: cell-based; design: endogenous in cells; host or cells: HeLa; details: 24 h; for BRD4 degradation: BRD ligand (monomer) alone
Description: (§1) All cell lines were purchased from ATCC or DSMZ and grown at 37° C. with 5% C02. Human HeLa cells were cultured in complete growth medium (Dulbecco's modified Eagle's medium (DMEM) supplemented with 10% FBS); MCF7 cells were cultured in complete growth medium (Dulbecco's modified Eagle's medium (DMEM) supplemented with 10% FBS and 0.01 mg/ml human recombinant insulin (Sigma Aldrich); Namalwa and MOLM-13 cells were cultured in complete growth medium (RPMI 1640 medium supplemented with 10% FBS); MV-4-11 were cultured in complete growth medium (Iscove's Modified Dulbecco's medium, supplemented with 10% FBS); HCT116 cells were cultured in complete growth medium (McCoy's 5a Medium supplemented with 10% FBS). For cellular degradation of BRD4 studies, cells were seeded in a 12-well plate at 70-80% confluency, allowed to attach overnight, and incubated with the indicated compounds for the indicated time. When indicated, a 15-minute pretreatment with 10 μM pomalidomide, 10 μM VHL298, 10 μM Nutlin3a, 1 μM MG-132 or 1 μM Carfilzomib was performed before the addition of CURE-PROs. For washout studies, after CURE-PRO treatment, media was aspirated and incubated with complete medium for the indicated time before lysis.
(§2) Anti-BRD4 (13440, 1:1,000 dilution for Western Blot and 1:25 dilution for ProteinSimple); Anti-BRD2 (5848 1:1,000 dilution for Western Blot and 1:25 dilution for ProteinSimple); β-Actin (3700, 1:2,000 dilution for Western Blot), β-Actin (4970, 1:50 dilution for ProteinSimple) anti-mouse IgG-HRP, and anti-rabbit IgG-HRP antibodies were purchased Cell Signaling Technology. Anti-GAPDH (600-401-A33, 1:100 dilution for ProteinSimple) was purchased from Rockland Immunochemicals, Inc. Anti-BRD3 (sc-81202, 1:200 dilution for Western Blot) was purchased from Santa Cruz Biotechnology.
HeLa, MCF7, or HCT116 cells (2.5-3×10^6) were treated for 24 hours with the indicated compounds solubilized in DMSO. The cells were washed in ice-cold PBS and were then lysed in RIPA lysis buffer (150 mM NaCl, 5 mM EDTA, 1% NP-40, 0.5% sodium deoxycholate, 0.1% SDS, 50 mM Tris, pH 8.0) with Roche protease inhibitor complete cocktail and phosphatase inhibitors (10 mM sodium fluoride, 10 mM sodium pyrophosphate, 1 mM sodium orthovanadate and 20 mM β-glycerophosphate). The total protein concentrations were determined by Bradford Protein Assay and 10-20 μg of protein was loaded onto 4-15% Tris-Glycine gradient gels (Biorad). After standard gel electrophoresis, the separated proteins were transferred to PVDF membrane by wet transfer. The immunoblots were then blocked for 1 hour in 5% skim milk in TBST or 5% BSA in TBST, according to manufacturer's instructions, before an overnight incubation at 4° C. with indicated antibodies and membranes. Membranes were then incubated with the appropriate horseradish peroxidase-conjugated secondary antibodies (1:5,000 dilution) for 1 h at room temperature and the bands were visualized using the Clarity Max Western ECL Substrate (Biorad) and the ChemiDoc Imaging System (Biorad). Signal was detected with ECL Western Blotting Substrate (Pierce) and X-ray film processed with a Konica SRX-101 X-ray film processor or captured by Bio-Rad's Chemidoc Imaging system.
HeLa cells (2.5×10^6) were treated for 24 hours with the sample compounds solubilized in DMSO. Compounds were added at 1-10 μM each. Standardized protein samples were electrophoresed and imaged as described in the immunoblotting description above. FIGS. 6-18 depicts the CURE-PRO-mediated BRD4 degradation for BRD monomers (JQ1 derivatives comprising of catechol linkers), and CRBN ligands, 8048 and 8049 (pomalidomide derivatives comprising boronic acid linkers) combined in a 1:1 ratio.
HeLa cells (2.5×10^6) were treated for 24 hours with the compounds solubilized in DMSO. The compounds were added at 10 μM each. Standardized protein samples were electrophoresed and imaged as described in the immunoblotting section above. […]

[3] = molecular target: T1, BRD4; test: Summary of E3 ligase directed degradation of BRD4, estimated from Western Blot or WES (Tables 1-6); type: cell-based; design: endogenous in cells; host or cells: HeLa, MCF7 or HCT116; details: for Degradation of BRD4, combination with CRBN ligand [drawing 421]: CRBN ligand drawn as drawing 421 (by the text apparently 8047); for Degradation of BRD4, combination with CRBN ligand [drawing 422]: CRBN ligand drawn as drawing 422 (by the text apparently 8066)
Outline: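 HeLa, MCF7 or HCT116 cells treated 24 h with compounds in DMSO, lysed in RIPA buffer; BRD4 levels read by Western blot (ECL detection) or capillary WES with HRP detection. Check mark denotes 30% to 70% or higher protein degradation.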

[4] = molecular target: T1, BRD4; test: CURE-PRO-mediated BRD4 degradation in HeLa cells, WES capillary electrophoresis (ProteinSimple); type: cell-based; design: endogenous in cells; host or cells: HeLa; details: for BRD4 degradation: 24 h, co-dosed with CRBN ligand 8047, 100 nM-10 μM each
Description: as §1, §2
WES Simple analysis was performed on WES system (ProteinSimple-Biotechne) according to the manufacturer's instructions. Total protein concentrations of cell lysates were determined by the Pierce BCA kit (Thermo Fisher). 3 μL of 0.3 μg/uL of the protein lysate was loaded onto a 12- to 230-kDa WES assay plate (ProteinSimple) where 300 nL sample was withdrawn through a capillary, subjected to electrophoretic separation of proteins by size, and followed by the simultaneous, HRP-based detection of proteins using the Anti-Rabbit Detection Module (Proteinsimple: #DM-001). The electropherograms were checked then the automatic peak detection was manually corrected if it was required.
HeLa cells (2.5×10^6) were treated for 4-24 hours with the compounds solubilized in DMSO. After 4 hours, indicated points were washed and cells were left in full growth media. Compounds were added at 10 μM each. […]

| Structure (SMILES) | BRD4 degradation [2] | Degradation of BRD4, combination with CRBN ligand [drawing 421] ([3]; Table 1) | Degradation of BRD4, combination with CRBN ligand [drawing 422] ([3]; Table 1) | BRD4 degradation [4] | also measured |
| --- | --- | --- | --- | --- | --- |
| Cc1sc2c(c1C)C(c1ccc(Cl)cc1)=N[C@@H](CC(=O)Nc1ccc(OCCOCCOCCOCCNc3cccc4c3C(=O)N(C3CCC(=O)NC3=O)C4=O)cc1)c1nnc(C)n1-2 (stereo partly shown) [ARV-825, reference compound] | – | – | – | – | suppression of SLC19A1 expression [1]: Complete suppression of SLC19A1 was evident |
| COc1ccc2c(c1)C(c1ccc(Cl)cc1)=N[C@@H](CC(=O)NCCNC(=O)/C=C/c1cccc(B(O)O)c1)c1nnc(C)n1-2 [BRD-E30, (3-((E)-3-((2-(2-((4S)-6-(4-chlorophenyl)-8-methoxy-1-methyl-4H-benzo[f][1,2,4]triazolo[4,3-a][1,4]diazepin-4-yl)acetamido)ethyl)amino)-3-oxoprop-1-en-1-yl)phenyl)boronic acid] | no change in expression is observed | ✓ (A black check mark indicates efficacy of 30% to 70% or higher protein degradation) | ✓ (A black check mark indicates efficacy of 30% to 70% or higher protein degradation) | – | – |
| CCNC(=O)C[C@@H]1N=C(c2ccc(Sc3cccc(B(O)O)c3)cc2)c2cc(OC)ccc2-n2c(C)nnc21 [BRD-E52, (3-((4-((4S)-4-(2-(ethylamino)-2-oxoethyl)-8-methoxy-1-methyl-4H-benzo[f][1,2,4]triazolo[4,3-a][1,4]diazepin-6-yl)phenyl)thio)phenyl)boronic acid] | – | ✓ (A black check mark indicates efficacy of 30% to 70% or higher protein degradation) | ✓ (A black check mark indicates efficacy of 30% to 70% or higher protein degradation) | marked BRD4 degradation | BRD4 degradation with pomalidomide and the BRD ligand (no 8047) ([2]; 10 μM): failed to induce BRD4 degradation; BRD4 degradation after preincubation with pomalidomide ([2]; 10 μM, 1:1 with CRBN ligand 8047, pomalidomide preincubated 15 min at equimolar concentration): inhibition of CURE-PRO-mediated BRD4 degradation; BRD4 degradation, time dependence and washout ([4]; 4-24 h, 10 μM each, co-dosed with CRBN ligand 8047, washed after 4 h): marked BRD4 degradation after 4 h with sustained degradation for up to 8 h after drugs are washed out |
| CCNC(=O)C[C@@H]1N=C(c2ccc(Sc3ccccc3)cc2)c2cc(OC)ccc2-n2c(C)nnc21 [BRD-E52C, N-ethyl-2-((4S)-8-methoxy-1-methyl-6-(4-(phenylthio)phenyl)-4H-benzo[f][1,2,4]triazolo[4,3-a][1,4]diazepin-4-yl)acetamide] | – | – | – | failed to induce degradation even at 10 μM | – |
| CCNC(=O)C[C@@H]1N=C(c2ccc(Cl)cc2)c2cc(OCCCCCCNC(=O)c3ccc(B(O)O)cc3)ccc2-n2c(C)nnc21 [BRD-E79, (4-((6-(((4S)-6-(4-chlorophenyl)-4-(2-(ethylamino)-2-oxoethyl)-1-methyl-4H-benzo[f][1,2,4]triazolo[4,3-a][1,4]diazepin-8-yl)oxy)hexyl)carbamoyl)phenyl)boronic acid] | no change in expression is observed | ✓ (A black check mark indicates efficacy of 30% to 70% or higher protein degradation) | ✓ (A black check mark indicates efficacy of 30% to 70% or higher protein degradation) | – | Degradation of BRD4, combination with CRBN ligand [drawing 397] ([3]; Table 1, aromatic 1,2-diol- or hindered cis-1,2-diol-containing CRBN ligand drawn as drawing 397 (by the text apparently 8046)): ✓ (A black check mark indicates efficacy of 30% to 70% or higher protein degradation); Degradation of BRD4, combination with MDM2 ligand [drawing 430] ([3]; Table 2, aromatic 1,2-diol-containing MDM2 ligand drawn as drawing 430 (by the text apparently 8313)): ✓ (A black check mark indicates efficacy of 30% to 70% or higher protein degradation) |
